For data set [1], the system named is A2780 cells. The experiment in a line: Drug efficacy test with combined use of platinum preparation in tumor-bearing mouse model with subcutaneous transplantation of A2780 (carboplatin, Lipo, topotecan). The class given is in vivo, mice. To be noted: for Median survival time: from start of drug administration, carboplatin 80 mg/kg ip, Lipo 0.5 mg/kg tail vein once a week x 2, topotecan 0.5 mg/kg tail vein once a day x 5, carboplatin once in the topotecan combination; for Number of animal deaths or euthanasias due to deterioration of condition: of 8 animals in group, same doses and schedules as median survival. The source says:
A platinum preparation (hereinafter, also referred to as carboplatin), the topotecan-containing liposome composition according to the embodiment of the present invention, and topotecan were used as test substances. Physiological saline (available from Otsuka Pharmaceutical Factory, Inc., hereinafter, also referred to as carboplatin solvent) was used for the dilution of carboplatin and topotecan. A 5% Otsuka glucose solution (available from Otsuka Pharmaceutical Factory, Inc., hereinafter, also referred to as Lipo solvent) was used for the dilution of Lipo.
(§1) 5×10^6 A2780 cells, which is a human ovarian cancer cell line, were subcutaneously transplanted into the flank of female BALB/cAJcl-nu/nu mice to form subcutaneous tumors. From 7 days after transplantation, mice were drug treated with carboplatin alone, Lipo of the present invention alone, topotecan alone, a combination of carboplatin and Lipo, and a combination of carboplatin and topotecan, and the effect of the drug treatment on the survival time of the mice was evaluated. In a case where a volume of tumor reached 2,000 mm^3 or in a case where significant deterioration of the condition was observed, the animals were euthanized and considered dead.
In the combination group of a carboplatin solvent and a Lipo solvent, the carboplatin solvent was administered by intraperitoneal administration, and the Lipo solvent was administered by tail vein administration once a week for 2 weeks. The carboplatin alone group was administered by intraperitoneal administration once a week for 2 weeks. The Lipo alone group was administered by tail vein administration once a week for 2 weeks. In the combination group of carboplatin and Lipo, carboplatin was administered by intraperitoneal administration once a week for 2 weeks, and Lipo was administered by tail vein administration once a week for 2 weeks. In the combination group of carboplatin and topotecan, carboplatin was administered as a single dose by intraperitoneal administration, and topotecan was administered by tail vein administration once a day for 5 days.
Groups 1 to 4 and 6 correspond to Comparative Examples, and Group 5 corresponds to Example. In Table 5, “Lipo” represents the topotecan-containing liposome composition according to the embodiment of the present invention, “Abdomen” represents intraperitoneal administration, “Tail” represents tail vein administration, “Once a week×2” represents once a week for 2 weeks, “Once a day×5” represents administration once a day for 5 days, and “Once” represents administration once during the test period.

Data set [2] relates to A2780 cells. Description: Drug efficacy test with combined use of platinum preparation in tumor-bearing mouse model with subcutaneous transplantation of A2780 (carboplatin, Lipo, paclitaxel). It counts as in vivo, mice. How it is done: A platinum preparation (hereinafter, also referred to as carboplatin), the topotecan-containing liposome composition according to the embodiment of the present invention, and paclitaxel were used as test substances. Physiological saline (available from Otsuka Pharmaceutical Factory, Inc., hereinafter, also referred to as carboplatin solvent) was used for the dilution of carboplatin. A 10 mM histidine/9.4% sucrose solution (hereinafter, also referred to as Lipo solvent) was used for the dilution of Lipo. 12.5% CREMOPHOR (available from Sigma-Aldrich, LLC)/12.5% ethanol (available from Shonan Wako Junyaku K.K.)/75% physiological saline (available from Otsuka Pharmaceutical Factory, Inc.) was used for the dilution of paclitaxel.
as §1, with “alone,” for “alone, topotecan alone,”, “paclitaxel,” for “topotecan,”, “dead. […]” for “dead.”

For `N.N.O=C([O-])C1(C(=O)[O-])CCC1.[Pt+2]` [Carboplatin, carboplatin], the Median survival time in data set [1] is reported as 9.1 days; in data set [2] (from start of drug administration, carboplatin 80 mg/kg ip, Lipo 0.5 mg/kg tail vein, paclitaxel 20 mg/kg tail vein, single agents once a week x 2, combinations once), 10 days. Moreover, the “Number of animal deaths or euthanasias due to deterioration of condition” value came out at 0 in data set [1]; 1 in data set [2] (of 8 animals in group, same doses and schedules as median survival).

With `CC[C@@]1(O)C(=O)OCc2c1cc1n(c2=O)Cc2cc3c(CN(C)C)c(O)ccc3nc2-1` [Topotecan, topotecan], in data set [1], the Median survival time is 12.9 days and the “Number of animal deaths or euthanasias due to deterioration of condition” value stood at 0.

Values taken from patent US12370214B2, “Combined pharmaceutical formulation comprising drug-containing liposome composition and platinum preparation” (FUJIFILM Corporation, priority 2018, dated 2025).
